Data set [1] is described as follows: Metabolic stability assay, hepatic S9 fraction incubation (rat). It is filed as in vitro ADME. Conditions: rat liver S9 fraction 2.0 mg/mL protein, 1.0 μM substrate, 1.0 mM NADPH, 37° C., 30 minutes. Here is the method: (§1) In order to determine the metabolic stability of each of the tested compounds, the following assay conditions were used: 100 mM-phosphate buffer, 1.0 mM NADPH, 3.3 mM magnesium chloride, 2.0 mg/mL protein from Hepatic S9 Fraction and 1.0 μM of substrate.
(§2) The assay was performed on a 96-well conical shaped plate with a volume of 200 μL, after addition of methanol. For each species, a set of samples was prepared as shown below (volumes are in μL).
(§3) The plate was sealed and incubated in a Thermal Mixer at 37° C. for 30 minutes at 400 rpm. 100 μL of methanol was added to each well and the plate was mixed for several minutes and then covered with an aluminum seal. Finally, the plate was centrifuged at 1000 rpm for 10 minutes.
(§4) The assay was analyzed using liquid chromatography and positive ion electrospray mass spectrometry. The chromatography column used was Agilent Zorbax SB-C18 (3.0×150 mm, 5 μm) with a flow rate of 0.5 mL/min.
(§5) Calculations were performed to determine the percent remaining, which is calculated by dividing the Peak Area Ratio of the analyte measured in the active protein versus the Peak Area Ratio of the analyte measured in the inactivated protein sample. The Peak Area Ratio is defined as the peak area of the analyte divided by the peak area of the internal standard. Analyte is defined as the substrate of a specific measurable metabolite.

Data set [2] is described as follows: Metabolic stability assay, hepatic S9 fraction incubation (human). It is filed as in vitro ADME. Conditions: human liver S9 fraction 2.0 mg/mL protein, 1.0 μM substrate, 1.0 mM NADPH, 37° C., 30 minutes. The protocol:
as §1, §2, §3, §4, §5

A short description of data set [3]: Bioavailability and prodrug conversion in male rats. It is filed as in vivo. Conditions: Crl:CD(SD)BR, rat, blood, fasted, oral 10 mg free base of active moiety per kg, IV 1 mg free base/kg, LC-MS/MS, read-out: BA (bioavailability of prodrug after oral adminstration). The protocol: Healthy male rats [Crl:CD(SD)BR] were obtained from Charles River Breeding Laboratory (Canada). […] The animals weighed 250 to 320 g and were individually identified by labeling on each metabolism cage. The rats were housed in individual metabolism cages during dosing and sample collections. The animals were acclimated to a diet of Purina Rodent Chow #5002 (Ralston Purina, St. Louis, Mo.) for at least 5 days and were fasted for 15-20 hours prior to the administration of the compound. Food was available from 4 hours after dose administration and ad libitum throughout the remainder of the study.
Each animal received the prodrug orally at an equivalent dose of 10 mg of free base of active moiety per kg of body weight or active moiety orally at an equivalent dose of 10 mg equivalent free base per kg body weight. For intravenous (IV) study, the animals received 1 mg free base/kg body weight. Sufficient amount of the test article was dissolved in appropriate vehicle (See table below) such that the final concentration of dose solution was 2.0 mg free base/mL and 0.5 mg free base/mL for oral and IV doses, respectively. The dose volume was 5 mL/kg and 2 mL/kg for oral and IV doses, respectively
Blood samples were collected from the jugular vein at specified time intervals. Concentrations of test article and/or prodrug were analyzed using a LC-MS/MS procedure.
Model independent pharmacokinetic parameters (Cmax, Tmax, AUC, T1/2, CL, Vss) were obtained using Watson computer program. The bioavailability (BA) was calculated as follows: [formula]
The percentages of conversion of prodrug to active moiety was calculated using the following equation: [formula]
“AUC” represents area under the curve.

Regarding `CC(C)Nc1ncc(-c2cc(N)cc(C(F)(F)F)c2)n(CC(=O)NCc2ccc(C(=N)NO)cc2)c1=O` [Compound 1], in data set [1], the “S9 Rat (percent remaining)” value was determined as 11%. The “S9 Hum. (percent remaining)” value in data set [2] is on record as 2%.
Regarding `CONC(=N)c1ccc(CNC(=O)Cn2c(-c3cc(N)cc(C(F)(F)F)c3)cnc(NC(C)C)c2=O)cc1` [Compound 4], the “S9 Rat (percent remaining)” value in data set [1] is 0%. Moreover, in data set [2], the “S9 Hum. (percent remaining)” value amounted to 0%. For the same molecule, in data set [3], the bioavailability amounted to 17%.
As to `CC(C)Nc1ncc(-c2cc(N)cc(C(F)(F)F)c2)n(CC(=O)NCc2ccc(C3=NC(C)(C)ON3)cc2)c1=O` [Compound 5], the “S9 Rat (percent remaining)” value in data set [1] is 13%. In addition, the “S9 Hum. (percent remaining)” value in data set [2] came out at 0.50%. Moreover, the bioavailability in data set [3] is 5%.
Turning to `CC(C)Nc1ncc(-c2cc(N)cc(C(F)(F)F)c2)n(CC(=O)NCc2ccc3c(N)noc3c2)c1=O` [Compound 6], the bioavailability in data set [3] was 7%.
For the molecule `CCOC(=O)O/N=C(\N)c1ccc(CNC(=O)Cn2c(-c3cc(N)cc(C(F)(F)F)c3)cnc(NC(C)C)c2=O)cc1` [Compound 7], the “S9 Rat (percent remaining)” value in data set [1] is on record as 54%. The “S9 Hum. (percent remaining)” value in data set [2] is listed as 5%.
For `CCONC(=N)c1ccc(CNC(=O)Cn2c(-c3cc(N)cc(C(F)(F)F)c3)cnc(NC(C)C)c2=O)cc1` [Compound 8], the “S9 Rat (percent remaining)” value in data set [1] amounted to 3%. In addition, the “S9 Hum. (percent remaining)” value in data set [2] amounted to 1%. In data set [3], the bioavailability stood at 20%.
For `CC(C)Nc1ncc(-c2cc(N)cc(C(F)(F)F)c2)n(CC(=O)NCc2ccc3c(N)nc(=O)oc3c2)c1=O` [Compound 9], in that order: 0%, 0% and 1%.
In the case of `CCCCOC(=O)O/N=C(\N)c1ccc(CNC(=O)Cn2c(-c3cc(N)cc(C(F)(F)F)c3)cnc(NC(C)C)c2=O)cc1` [Compound 11], the “S9 Rat (percent remaining)” value in data set [1] is 44%. The “S9 Hum. (percent remaining)” value in data set [2] is 40%.
Consider `COC(=O)c1cc(N)cc(-c2cnc(NC(C)C)c(=O)n2CC(=O)NCc2ccc(C(=N)NO)cc2)c1` [Compound 12], for which, in data set [3], the bioavailability stood at 3%.
In the case of `CCNC(=O)O/N=C(\N)c1ccc(CNC(=O)Cn2c(-c3cc(N)cc(C(F)(F)F)c3)cnc(NC(C)C)c2=O)cc1` [Compound 14], the “S9 Rat (percent remaining)” value in data set [1] was 1%. Further, the “S9 Hum. (percent remaining)” value in data set [2] is on record as 1%. The bioavailability in data set [3] was 1%.
Regarding `CC(C)Nc1ncc(-c2cc(N)cc(C(F)(F)F)c2)n(CC(=O)NCCc2c(F)c(F)c3c(N)noc3c2F)c1=O` [Compound 15], the “S9 Rat (percent remaining)” value in data set [1] came to 25%. Further, in data set [2], the “S9 Hum. (percent remaining)” value came out at 39%. Moreover, the bioavailability in data set [3] was 4%.
Turning to `CC(C)COC(=O)O/N=C(\N)c1ccc(CNC(=O)Cn2c(-c3cc(N)cc(C(F)(F)F)c3)cnc(NC(C)C)c2=O)cc1` [Compound 16], the “S9 Rat (percent remaining)” value in data set [1] is 0%. Further, in data set [2], the “S9 Hum. (percent remaining)” value was 0%.
Turning to `CC(C)Nc1ncc(-c2cc(N)cc(NC(=O)C(C)C)c2)n(CC(=O)NCc2ccc(C(=N)NO)cc2)c1=O` [Compound 18], the “S9 Rat (percent remaining)” value in data set [1] is given as 36%. Further, in data set [2], the “S9 Hum. (percent remaining)” value worked out at 5%.
For `CC(C)Nc1ncc(-c2cc(N)cc(C(F)(F)F)c2)n(CC(=O)NCc2ccc(/C(N)=N/OC(=O)OC(C)C)cc2)c1=O` [Compound 20], the bioavailability in data set [3] came to 2%.
For `COc1ccc(OC(=O)O/N=C(\N)c2ccc(CNC(=O)Cn3c(-c4cc(N)cc(C(F)(F)F)c4)cnc(NC(C)C)c3=O)cc2)cc1` [Compound 24], in data set [1], the “S9 Rat (percent remaining)” value came out at 1%. Also, the “S9 Hum. (percent remaining)” value in data set [2] stood at 1%.
Take `CC(C)Nc1ncc(-c2cc(N)cc(C(F)(F)F)c2)n(CC(=O)NCc2ccc(C3=NOC(C)(c4ccccc4)N3)cc2)c1=O` (stereo not shown) [Compound 25]: the “S9 Rat (percent remaining)” value in data set [1] was 13%. For the same molecule, the “S9 Hum. (percent remaining)” value in data set [2] is given as 3%.
For `CC(C)Nc1ncc(-c2cc(N)cc(C(F)(F)F)c2)n(CC(=O)NCc2ccc(C(=N)NOCc3ccccc3)cc2)c1=O` [Compound 29] the same measures were 14% and 17%.
